Test results published in ChEMBL document CHEMBL3769318, “The Rational Design of Selective Benzoxazepin Inhibitors of the α-Isoform of Phosphoinositide 3-Kinase Culminating in the Identification of (S)-2-((2-(1-Isopropyl-1H-1,2,4-triazol-5-yl)-5,6-dihydrobenzo[f]imidazo[1,2-d][1,4]oxazepin-9-yl)oxy)propanamide (GDC-0326)” (J Med Chem, 2016).

Experiments:
[1] = target: Phosphatidylinositol 4,5-bisphosphate 3-kinase catalytic subunit alpha isoform (Homo sapiens, UniProt P42336); assay: Inhibition of recombinant PI3K alpha (unknown origin) using PIP2 as substrate by fluorescence polarization assay; conditions: read-out: Ki(app)
[2] = Clearance in Sprague-Dawley rat at 1 mg/kg, iv; type: ADME, organism-based; conditions: in vivo

Sequence of Phosphatidylinositol 4,5-bisphosphate 3-kinase catalytic subunit alpha isoform (P42336 whole entry, canonical isoform): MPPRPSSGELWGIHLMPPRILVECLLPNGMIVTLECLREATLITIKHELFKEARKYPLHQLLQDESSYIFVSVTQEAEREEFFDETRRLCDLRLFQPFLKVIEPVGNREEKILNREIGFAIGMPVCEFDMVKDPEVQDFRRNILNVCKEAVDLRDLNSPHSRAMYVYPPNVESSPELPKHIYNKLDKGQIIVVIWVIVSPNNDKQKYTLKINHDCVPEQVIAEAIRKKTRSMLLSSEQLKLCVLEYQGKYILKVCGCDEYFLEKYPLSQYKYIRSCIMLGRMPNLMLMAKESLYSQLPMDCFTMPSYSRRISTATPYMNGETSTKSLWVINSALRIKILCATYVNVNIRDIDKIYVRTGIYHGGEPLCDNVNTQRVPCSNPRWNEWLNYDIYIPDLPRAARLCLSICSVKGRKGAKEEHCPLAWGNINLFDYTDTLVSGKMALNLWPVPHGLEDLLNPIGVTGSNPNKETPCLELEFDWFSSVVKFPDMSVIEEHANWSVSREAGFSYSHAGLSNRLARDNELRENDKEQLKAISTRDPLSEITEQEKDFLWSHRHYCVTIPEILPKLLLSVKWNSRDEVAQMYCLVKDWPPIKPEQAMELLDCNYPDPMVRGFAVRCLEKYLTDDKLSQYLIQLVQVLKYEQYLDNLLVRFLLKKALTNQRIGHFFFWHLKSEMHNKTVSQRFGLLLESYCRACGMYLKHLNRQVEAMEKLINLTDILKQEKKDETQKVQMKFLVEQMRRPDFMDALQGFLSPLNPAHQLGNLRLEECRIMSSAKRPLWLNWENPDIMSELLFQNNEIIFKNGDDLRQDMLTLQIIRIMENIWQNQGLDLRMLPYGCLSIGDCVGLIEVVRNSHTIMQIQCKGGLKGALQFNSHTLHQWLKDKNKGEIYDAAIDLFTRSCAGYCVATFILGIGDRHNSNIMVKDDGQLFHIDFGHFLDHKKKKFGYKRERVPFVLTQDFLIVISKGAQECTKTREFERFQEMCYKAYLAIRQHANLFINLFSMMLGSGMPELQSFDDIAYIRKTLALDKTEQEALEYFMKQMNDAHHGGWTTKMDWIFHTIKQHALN

Ki [1] | clearance [2] | Compound
1 nM | 62 mL/min/kg | CC(C)n1ncnc1-c1cn2c(n1)-c1cnc(O[C@@H](C)C(N)=O)cc1OCC2
1.2 nM |  | CC(C)n1ncnc1-c1cn2c(n1)-c1cnc(N)cc1OCC2
